Experimental findings from US5461057A, “Hydro-ethano-indeno-pyridines” (priority 1994, dated 1995) are described below.

The test system of series [1] is histamine-induced dyspnea. Kind of series: Bronchodilator (in vivo) Guinea Pig Dyspnea. The settings on record: oral, one hour before histamine challenge. In a few lines:
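Fasted, unanesthetized guinea pigs (250-350 g) received the test drug orally one hour before exposure to an aerosolized 0.1% histamine solution. Onset of dyspnea was recorded, and data were expressed as number tested over number survived.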

Series [2] deals with LOX human melanoma cell adhesion to human fibronectin. Briefly: LOX melanoma cell adhesion to fibronectin. It counts as cell-based. To be noted: Homo sapiens, LOX; for inhibition at 10 µM: read-out: % Inhibition at 10 μM; for inhibition at 50 µM: read-out: % Inhibition at 50 μM. In a few lines:
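Compound added to fibronectin-coated (140 ng/well), BSA-blocked wells before LOX cells (1×10^5/well, detached with urea/EDTA). Cells adhered 1 h at 37 °C, then washed. Adherent cells quantified by calcein AM fluorescence (485/530 nm); IC50 for adhesion inhibition.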

In series [3] the test system is B16-F10 mouse melanoma cell adhesion to fibronectin. Briefly: B16-F10 melanoma cell adhesion to fibronectin. It counts as cell-based. The settings on record: read-out: B16 FN IC50. As for the experimental part:
(§1) Adhesion assays were run essentially as described previously (Pai et al., J. Biomed. Res. 2: 53, 1992). 96-well plates were coated with human fibronectin (140 ng/well), human vitronectin (75 ng/well), human collagen I (100 ng/well), human collagen IV (100 ng/well), human fibrinogen (1 μg/well), murine laminin (600 ng/well), or polylysine, and incubated overnight in a humidified 37° C. incubator. Excess fibronectin or other substrate was then removed and 0.2 ml of 2 mg/ml bovine serum albumin (BSA)in Dulbecco's phosphate-buffered saline (DPBS) was added to each well, incubated for 2 hours at 37° C., and removed. LOX human melanoma cells, M27 murine lung carcinoma cells or B16F10 mouse melanoma cells were detached from tissue culture flasks with RPMI medium containing 0.2M urea and 10 mM EDTA, and 0.18 ml of cells were added to each well to a final cell concentration of 1×10^5 cells/well. For inhibition studies 20 μl of 10× compound was added to the wells prior to cell addition. Cells were allowed to adhere for 1 hour at 37° C. The wells were then gently washed twice with 0.2 ml DPBS. The fluorescent dye calcein AM (Molecular Probes, Eugene Oreg.) in DPBS (0.1 ml of 1 μM) was added to each well, and the plates were incubated for 1 hour at room temperature. Adherent cells were quantitated by reading the fluorescence on a Cytofluor 2300 fluorescent plate reader (Millipore) at 485 nm excitation and 530 nm emission.

A short description of another series: MTT cytotoxicity assay. Type of series: cell-based. To be noted: human, lox melanoma cells; for CC50 at 1 h: read-out: MTT 1 Hr LD50. Here is the method:
LOX human melanoma cells, in RPMI medium with 2 mg/ml BSA and 25 mM HEPES, pH 7.4, were seeded at 4×10^4 cells/well in 96-well microtiter plates and grown overnight in a humidified 37° C. incubator. On the following day, the medium was aspirated and wells were washed once with 0.1 ml of DPBS. Compounds (0.1 ml) in DPBS were added to wells in quadruplicate at appropriate concentrations. The cells were then incubated with test compound for 1 hour at 37° C. Wells were aspirated and washed 2× with 0.1 ml DPBS. MTT [3-(4,5-Dimethylthiazol-2-yl)-2,5-diphenyltetrazolium bromide] (0.1 ml of 1 mg/ml solution in PBS from Sigma Chemical Co.) was added to each well and incubated for 2 hour at 37° C. MTT was aspirated and 0.1 ml of 50% N,N-dimethylformamide with 20% sodium dodecyl sulfate was added to each well. Plates were shaken for 10 minutes on a Titer-Plate shaker (Labline) at room temperature. Optical density was read at 570 nm with a plate-reading spectrophotometer (Dynatech MR5000).
A general note: Tetrazolium dyes change colour on reduction, which living cells bring about.

For series [4], the system named is LOX human melanoma cell adhesion to murine laminin. Kind of series: LOX cell adhesion to laminin. Type of series: cell-based. The settings on record: read-out: Laminin IC50. As for the experimental part:
as §1

Series [5] relates to LOX human melanoma cell adhesion to human collagen I. Briefly: LOX cell adhesion to collagen I. It counts as cell-based. The settings on record: read-out: Collagen I IC50. As for the experimental part: as §1
In series [6] the test system is LOX human melanoma cell adhesion to human vitronectin. Kind of series: LOX cell adhesion to vitronectin. It counts as cell-based. To be noted: read-out: Vitronectin IC50. As for the experimental part:
as §1

The test system of series [7] is LOX human melanoma cell adhesion to human fibrinogen. Briefly: LOX cell adhesion to fibrinogen. The settings on record: read-out: Fibrinogen IC50. It counts as cell-based. As for the experimental part: as §1
Series [8] deals with B16-F10 murine melanoma metastasis. Kind of series: In vivo experimental metastasis. Details: species or system mouse (C57/black6). To be noted: 150 mpk i.p. As for the experimental part: C57/black6 female mice (6-7 weeks old) were randomized before any treatment into groups of 5 mice per treatment. Compounds of the invention were prepared as a fine suspension in 25% β-cyclodextran and administered i.p. in a volume of 0.2 ml per animal. Two hours after drug (or vehicle) injection, 0.2 ml of DPBS containing 1×10^5 B-16 F10 murine melanoma cells were injected i.v. into the tail vein. After 14 days, animals were sacrificed and lungs were removed. Metastatic lung colonies were counted by visual inspection.
*Pretreatment Time is the time between i.p. drug injection and i.v. tumor

The subject of the next series is PDGF receptor. Briefly: PDGF receptor binding assay.
A further series relates to pulmonary resistance. Briefly: Pulmonary Resistance in the Anesthetized Rat. It counts as in vivo. To be noted: 0.5 mpk, i.v.; mean of 5 animals; % decrease in pre-drug baseline resistance. In a few lines:
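Dialurethane-anesthetized rats (400-500 g) with tracheal and esophageal catheters; air flow and tracheal/esophageal pressures used to derive pulmonary resistance. Compounds given i.v. to 5 animals each; values are mean % decrease from pre-drug baseline resistance.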

Where two headings read alike, the source gives them in different places.

`CN1C2CCC1C1C(=C(c3ccc(Cl)cc3)c3ccccc31)C2` (stereo not shown) [C]: in series [1] (100 mg/kg), the DYSP survivors is 0/3. The IC50 in [2] (1 h, read-out: LOX FN IC50) stood at 7.3 µM; in series [2] (read-out: Fibronectin IC50), 7.3 µM; in series [3], 15.1 µM; in series [4] it was 3.5 µM; in series [5], 4 µM; in series [6] it was 5.9 µM. For the same molecule, the half-maximal inhibitory concentration (IC50) in series [7] worked out at 6.2 µM. Further, in series [2], the inhibition at 10 µM amounted to 58.6%. In series [2], the inhibition at 50 µM was 101%. Besides, the CC50 at 1 h in “MTT cytotoxicity assay” is 95.1 µM.

For `COc1ccc(C2=C3CC4CCC(N4)C3c3ccccc32)cc1` (stereo not shown) [Compound B], in series [1] (Cavia porcellus, 1 h, 100 mg/kg, read-out: DYSP survivors (converted)), the responders at 100 mg/kg is 0%. Also, the IC50 in [2] (1 h, read-out: LOX FN IC50) stood at 5.1 µM; in series [2] (read-out: Fibronectin IC50), 5.1 µM; in series [3], 14.7 µM; in series [4], 7.7 µM; in [5], 6.7 µM; in series [6], 16.8 µM. The 50% inhibitory concentration (IC50) in [7] amounted to 9.9 µM. Further, in series [2], the inhibition at 10 µM came to 61.8%. Further, the inhibition at 50 µM in [2] was found to be 101%. Also, in the series “MTT cytotoxicity assay” (MTT, read-out: selectivity for blockade of fibronectin adhesion vs. cytotoxicity (MTT 1 hour)), the selectivity ratio at 1 h was 19. The CC50 at 1 h in “MTT cytotoxicity assay” came to 97.6 µM. Further, the “inhibition of in vivo metastasis relative to vehicle control” value in series [8] (2 hours before i.v. injection of melanoma) is recorded as 73%. In addition, the “% Inhibition of lung metastasis” value in series [8] (pretreatment time 30 min) was determined as 55.7%; in series [8] (pretreatment time 120 min), 72.5%. The “Number of Lung Melanoma Colonies” value in series [8] (pretreatment time 30 min) was 35.2 ± 13.9; in series [8] (pretreatment time 120 min), 21.8 ± 2.0. Further, the “inhibition of PDGF binding” value with PDGF receptor is reported as “not to inhibit PDGF binding directly”.

With `Cc1ccc(C2=C3CC4CCC(C3c3ccccc32)N4C)cc1` (stereo not shown) [J], the DYSP survivors in series [1] (10 mg/kg) is given as 0/3; in series [1] (50 mg/kg) it was 1/3; in [1] (100 mg/kg) it was 3/3. In the series on pulmonary resistance, the “Pulmonary Resistance in Rats, % Inhibition” value amounted to 35%. Moreover, the IC50 in [2] (1 h, read-out: LOX FN IC50) was 5.3 µM; in [2] (read-out: Fibronectin IC50), 5.3 µM; in series [3], 15.9 µM; in series [4], 2.5 µM; in series [5] it was 4.5 µM; in series [6] it was 12.8 µM. The IC50 in series [7] was found to be 13.5 µM. Further, in series [2], the inhibition at 10 µM was found to be 31.1%. In series [2], the inhibition at 50 µM turned out to be 101%. Besides, the CC50 at 1 h in the series “MTT cytotoxicity assay” stood at 54.6 µM.

As a reminder, the IC50 is the concentration that inhibits the measured activity by half. A word on the inhibition: it is the drop in the measured response relative to a control, in per cent.
